Test results taken from patent US5563134A (Sandoz Ltd., priority 1993, dated 1996).
Read-outs that look alike come from different tables or passages of the source.

Assays:
[1] = tested on: glutathione and protein from human myeloperoxidase and human leucocytes
[2] = tested on: glutathione and protein from human myeloperoxidase and human leucocytes; assay: Reactive species formation and covalent binding of clozapine metabolites, tests as for clozapine
[3] = target: T1, horseradish peroxidase (Armoracia rusticana, UniProt P00433); assay: Electron spin resonance spectroscopy of radicals in a peroxidase system; settings: for Effect on ascorbyl radical concentration (ESR): 1 mM added to ascorbate/clozapine/horseradish peroxidase/hydrogen peroxide system
T1 sequence (P00433 31-338 limits assumed): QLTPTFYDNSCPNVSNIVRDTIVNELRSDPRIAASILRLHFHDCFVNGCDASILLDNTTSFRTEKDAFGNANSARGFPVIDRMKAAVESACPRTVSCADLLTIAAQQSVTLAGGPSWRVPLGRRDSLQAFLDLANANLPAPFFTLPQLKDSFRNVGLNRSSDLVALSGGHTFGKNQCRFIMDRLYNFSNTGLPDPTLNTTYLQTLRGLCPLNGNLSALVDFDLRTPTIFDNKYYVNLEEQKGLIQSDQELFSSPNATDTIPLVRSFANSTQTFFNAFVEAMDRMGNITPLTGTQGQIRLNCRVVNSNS

[4] = tested on: human myeloperoxidase or horseradish peroxidase; assay: HPLC with on-line radioactivity detection of tritium-labeled clozapine incubated with peroxidase and hydrogen peroxide; type: biochemical
Procedure: For HPLC a reversed phase column (Supelco Inc., Bellefonte Pa. USA LC-18-DB, 5 μm, 250×4.6 mm) was used. The mobile phase consisted of (NH4)2 CO3 buffer pH 8.5 (solvent A) and acetonitrile (solvent B). The proportion of solvent B was 0% for 5 minutes and was increased to reach 20% at 10 minutes, 24% at 60 minutes and 80% at 100 minutes. […] Instead two radioactive peaks eluting at 28 and 53 minutes from the HPLC appeared.

[5] = target: T1, horseradish peroxidase; assay: Clozapine metabolism by peroxidase, disappearance of UV absorption at 290 nm; type: biochemical
[6] = tested on: patients refractory and/or intolerant to classical antipsychotic drug treatment; settings: cited from earlier work
[7] = target: horseradish peroxidase (or human myeloperoxidase) (Homo sapiens, UniProt P05164); type: biochemical; settings: clozapine 100 μM, human myeloperoxidase 10 units, NADPH 10 mM, in place of horseradish peroxidase and GSH
Procedure: (§1) Oxygen consumption has also been observed when horseradish peroxidase was replaced with human myeloperoxidase (10 units) and GSH with NADPH (10 mM).

[8] = tested on: horseradish peroxidase (or human myeloperoxidase); type: biochemical
Procedure: as §1

[9] = tested on: granulocytes/polymorphonuclear leucocytes (PMN's); assay: Covalent binding of radiolabeled clozapine to isolated PMN's; type: cell-based, human
Procedure: 4) In another test heparinized peripheral blood was obtained from normal, healthy male volunteers, and granulocytes/polymorphonuclear leucocytes (PMN's) were isolated within 1-2 hours using an isolation kit (United Technologies Packard, Los Alamos, USA). PMN's were suspended in RPMI 1640 (Gibco, Basel, Switzerland) medium and adjusted to about 4×10^6 cells/ml before fetal calf serum was added (10% v/v).

Chain of horseradish peroxidase (or human myeloperoxidase) (Homo sapiens, UniProt P05164) (P05164 165-278 limits assumed): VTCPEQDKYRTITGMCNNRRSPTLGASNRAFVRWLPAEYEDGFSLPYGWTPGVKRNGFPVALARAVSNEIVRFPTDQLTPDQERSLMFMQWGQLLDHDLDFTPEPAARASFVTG
Chain of horseradish peroxidase (or human myeloperoxidase) (Homo sapiens, UniProt P05164) (P05164 279-745 limits assumed): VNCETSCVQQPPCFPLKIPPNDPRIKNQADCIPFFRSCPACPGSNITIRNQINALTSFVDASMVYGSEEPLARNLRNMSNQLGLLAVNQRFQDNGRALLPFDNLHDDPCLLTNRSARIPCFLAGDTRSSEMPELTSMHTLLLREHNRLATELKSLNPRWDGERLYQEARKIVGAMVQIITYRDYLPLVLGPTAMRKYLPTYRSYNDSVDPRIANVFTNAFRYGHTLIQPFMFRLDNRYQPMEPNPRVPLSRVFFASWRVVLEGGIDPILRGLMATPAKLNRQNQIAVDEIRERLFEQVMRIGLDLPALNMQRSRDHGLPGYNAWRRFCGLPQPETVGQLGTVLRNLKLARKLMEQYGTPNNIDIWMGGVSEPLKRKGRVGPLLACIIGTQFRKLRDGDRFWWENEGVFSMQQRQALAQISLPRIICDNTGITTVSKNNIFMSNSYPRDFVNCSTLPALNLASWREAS

CN1CCN(C2=Nc3cc(Cl)c(O)cc3Nc3ccccc32)CC1 [7-hydroxy-8-chloro-11-(4-methyl-1-piperazinyl)-5H-dibenzo[b,e][1,4]diazepine]
Formation of reactive species [1]: form reactive species such as free radicals

Clc1ccc2c(c1)N=C(N1CCNCC1)c1ccccc1N2 [8-chloro-11-(1-piperazinyl)-5H-dibenzo[b,e][1,4]diazepine]
Formation of reactive species [1]: form reactive species such as free radicals

C[N+]1([O-])CCN(C2=Nc3cc(Cl)ccc3Nc3ccccc32)CC1 [8-chloro-11-(4-methyl-4-oxo-1-piperazinyl)-5H-dibenzo[b,e][1,4]diazepine]
Formation of reactive species [1]: form reactive species such as free radicals

Oc1ccc2c(c1)N=C(N1CCNCC1)c1ccccc1N2 [8-hydroxy-11-(1-piperazinyl)-5H-dibenzo[b,e][1,4]diazepine]
Formation of reactive species [1]: form reactive species such as free radicals

CN1CCN(C2=Nc3cc(O)ccc3Nc3ccccc32)CC1 [8-hydroxy-11-(4-methyl-1-piperazinyl)-5H-dibenzo[b,e][1,4]diazepine]
Formation of reactive species ([2]; tests as for clozapine, worded "can also be shown"): form reactive species such as free radicals

CSc1ccc2c(c1)N=C(N1CCNCC1)c1ccccc1N2 [8-methylthio-11-(1-piperazinyl)-5H-dibenzo-[b,e][1,4]diazepine]
Formation of reactive species [1]: form reactive species such as free radicals

CSc1ccc2c(c1)N=C(N1CCN(C)CC1)c1ccccc1N2 [8-methylthio-11-(4-methyl-1-piperazinyl)-5H-dibenzo[b,e][1,4]diazepine]
Formation of reactive species [1]: form reactive species such as free radicals

NC(=O)C1=CN([C@@H]2O[C@H](COP(=O)(O)OP(=O)(O)OC[C@H]3O[C@@H](n4cnc5c(N)ncnc54)[C@H](OP(=O)(O)O)[C@@H]3O)[C@@H](O)[C@H]2O)C=CC1 [NADPH]
Effect on ascorbyl radical concentration (ESR) [3]: almost absent

O=C1O[C@H]([C@@H](O)CO)C(O)=C1O [ascorbic acid, L-ascorbic acid]
Effect on covalent binding of clozapine and its metabolites ([2]; intact human cells, radical scavenger): prevented

CN1CCN(C2=Nc3cc(Cl)ccc3Nc3ccccc32)CC1 [clozapine, 8-chloro-11-(4-methyl-1-piperazinyl)-5H-dibenzo[b,e][1,4]diazepine]
Covalent binding of clozapine-derived material to the enzyme (coelution of radioactivity with enzymatic protein) ([4]; clozapine 100 μM, enzyme and hydrogen peroxide present): Covalent binding of clozapine-derived material to the enzyme was indicated | Clozapine metabolism by peroxidases (disappearance of UV absorption at 290 nm) ([5]; clozapine 100 μM, 1-5 μg/ml horseradish peroxidase, 50 μM hydrogen peroxide, pH 7.4): demonstrated | Antipsychotic efficacy compared with standard neuroleptics ([6]; clinical studies): superior | Patients refractory to standard neuroleptics who significantly improved ([6]; clozapine treatment): approximately 30% | Risk of granulocytopenia and agranulocytosis ([6]; clozapine treatment): apparent increased risk | Increase in steady-state concentration of the ascorbyl radical when clozapine is present ([3]; 100 μM sodium ascorbate, 100 μM clozapine, horseradish peroxidase 8.3 μg/ml, hydrogen peroxide 50 μM, pH 7.4): over two fold | Glutathionyl thiyl radicals by ESR (DMPO trapping) ([3]; absence of sodium ascorbate, DMPO 100 mM): detected | Oxygen consumption [7]: observed | Oxygen consumption as indicator of radical formation ([8]; clozapine 100 μM, horseradish peroxidase 5 μg/ml, GSH 10 mM, pH 7.4): indicates an initial clozapine radical formation

N[C@@H](CCC(=O)N[C@@H](CS)C(=O)NCC(=O)O)C(=O)O [glutathione]
Effect on covalent binding to the enzymatic protein and metabolite formation ([4]; GSH 10 mM, pH 7.4, added to standard incubation): reduced but to a lesser extent | Effect on ascorbyl radical concentration (ESR) [3]: only marginally affected

O=C1O[C@H]([C@@H](O)CO)C([O-])=C1O.[Na+] [sodium ascorbate]
Effect on clozapine metabolism (metabolite formation) ([4]; sodium ascorbate 0.7 mM): completely reversed | Effect on covalent binding of clozapine to enzymatic protein ([4]; sodium ascorbate 0.7 mM): no radioactivity coeluted with the enzymatic protein | Effect on metabolism of clozapine (UV signal changes) ([5]; sodium ascorbate 0.7 mM added to the incubation): reversed | Effect on oxygen consumption i.e. initial clozapine radical formation ([8]; sodium ascorbate 0.7 mM): prevented | Effect on clozapine binding to PMN's ([9]; 5 mM sodium ascorbate, incubations containing opsonized zymosan): reduction of clozapine binding to PMN's | Effect on covalent binding of clozapine to PMN's ([9]; radiolabeled clozapine and sodium ascorbate incubated together with PMN's, worded "may also be shown"): reduction of covalent binding
